The results in this text go back to PMC9097471, “Development of Selective Phosphatidylinositol 5-Phosphate 4-Kinase γ Inhibitors with a Non-ATP-competitive, Allosteric Binding Mode” (Journal of Medicinal Chemistry, 2022).

In one data set the target is T1, PI5P4Kβ (Homo sapiens, UniProt P78356).
T1 sequence (P78356 1-416): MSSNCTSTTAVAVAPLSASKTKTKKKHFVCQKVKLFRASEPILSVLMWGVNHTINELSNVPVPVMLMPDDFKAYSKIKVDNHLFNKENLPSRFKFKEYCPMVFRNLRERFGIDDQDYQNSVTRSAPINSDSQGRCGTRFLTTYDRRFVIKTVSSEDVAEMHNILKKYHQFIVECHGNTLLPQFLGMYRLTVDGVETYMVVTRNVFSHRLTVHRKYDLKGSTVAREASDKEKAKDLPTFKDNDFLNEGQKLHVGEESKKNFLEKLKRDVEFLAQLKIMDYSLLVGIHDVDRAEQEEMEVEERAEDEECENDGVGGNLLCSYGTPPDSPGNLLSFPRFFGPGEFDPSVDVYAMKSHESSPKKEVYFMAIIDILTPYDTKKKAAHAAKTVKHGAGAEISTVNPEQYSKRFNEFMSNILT
The data set is described as follows: KINOMEscan KD (Eurofins Discovery, DiscoverX). Type of data set: binding. As to the method:
(§1) a Data were generated at Eurofins Discovery using DiscoverX KINOMEscanTM technology. Streptavidin-coated magnetic beads were treated with biotinylated small molecule ligands for 30 minutes at room temperature to generate affinity resins for kinase assays. The liganded beads were blocked with excess biotin and washed with blocking buffer (SeaBlock (Pierce), 1% BSA, 0.05% Tween 20, 1 mM DTT) to remove unbound ligand and to reduce non-specific binding. Binding reactions were assembled by combining kinases, liganded affinity beads, and test compounds in 1x binding buffer (20% SeaBlock, 0.17x PBS, 0.05% Tween 20, 6 mM DTT). Test compounds were prepared as 111X stocks in 100% DMSO. Kds were determined using an 11-point 3-fold compound dilution series with three DMSO control points. All compounds for Kd measurements are distributed by acoustic transfer (non-contact dispensing) in 100% DMSO. The compounds were then diluted directly into the assays such that the final concentration of DMSO was 0.9%. All reactions performed in polypropylene 384-well plate. Each was a final volume of 0.02 ml. The assay plates were incubated at room temperature with shaking for […]
(§2) room temperature with shaking for 30 minutes. The kinase concentration in the eluates was measured by qPCR. […]

For data set [1], the target named is T2, PI5P4Kγ-WT (Homo sapiens, UniProt Q8TBX8).
T2 sequence (Q8TBX8 1-421): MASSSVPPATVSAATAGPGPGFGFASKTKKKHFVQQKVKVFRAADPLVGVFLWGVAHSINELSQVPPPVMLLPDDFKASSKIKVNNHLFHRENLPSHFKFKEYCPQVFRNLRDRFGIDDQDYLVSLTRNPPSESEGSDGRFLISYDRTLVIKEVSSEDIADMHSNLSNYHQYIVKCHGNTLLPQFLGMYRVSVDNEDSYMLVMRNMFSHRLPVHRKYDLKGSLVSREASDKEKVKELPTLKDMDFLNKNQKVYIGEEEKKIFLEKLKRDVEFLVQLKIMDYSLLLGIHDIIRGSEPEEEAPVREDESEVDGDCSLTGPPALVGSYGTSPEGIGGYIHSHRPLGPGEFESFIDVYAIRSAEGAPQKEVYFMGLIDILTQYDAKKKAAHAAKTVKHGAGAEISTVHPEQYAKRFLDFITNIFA
As to the kind of experiment: KINOMEscan KD (Eurofins Discovery, DiscoverX). Type of data set: binding. As to the method: as §1, §2

The target of data set [2] is T2, PI5P4Kγ-WT. As to the kind of experiment: Thermal shift assay. The note with it: read-out: ΔTm PI5P4Kγ WT, thermal shift, compound 63 μM.
For another data set, the target named is T3, PI5P4Kα (Homo sapiens, UniProt P48426).
T3 sequence (P48426 1-406): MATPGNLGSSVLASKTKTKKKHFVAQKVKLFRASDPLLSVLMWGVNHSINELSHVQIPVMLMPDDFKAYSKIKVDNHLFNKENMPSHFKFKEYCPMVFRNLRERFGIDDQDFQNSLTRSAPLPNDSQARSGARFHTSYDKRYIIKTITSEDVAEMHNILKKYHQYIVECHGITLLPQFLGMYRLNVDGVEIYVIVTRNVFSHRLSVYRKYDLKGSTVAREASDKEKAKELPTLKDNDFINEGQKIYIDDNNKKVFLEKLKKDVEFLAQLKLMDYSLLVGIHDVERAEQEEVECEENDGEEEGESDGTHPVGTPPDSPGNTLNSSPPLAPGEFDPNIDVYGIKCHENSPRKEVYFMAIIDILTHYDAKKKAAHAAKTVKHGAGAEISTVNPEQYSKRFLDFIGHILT
As to the kind of experiment: Adapta TR-FRET assay (Thermo Fisher). Set-up: purchased Thermo Fisher. Type of data set: biochemical. As to the method:
Table S7. PI5P4Kα adapta assay results for compounds 1 and 40.a
Compound PI5P4Kα adapta IC50 (nM) […]
a The experiments were run by Thermo Fisher. This assay is a TR-FRET based assay using an Eu-anti-ADP antibody, the conditions are: the 2X PIP4Kα/PI(5)P mixture is prepared in 50 mM HEPES pH 7.5, 0.1% CHAPS, 1 mM EGTA, 4 mM MgCl2. The final 10 μL Kinase Reaction consists of 1.5 - 6 ng PIP4Kα and 50 μM PI(5)P in 32.5 mM HEPES pH 7.5, 0.05% CHAPS, 0.5 mM EGTA, 2 mM MgCl2. After the 1 hour Kinase Reaction incubation, 5 μL of Detection Mix is added. The Detection mix consists of EDTA (30mM), Eu-anti-ADP antibody (6 nM) and ADP tracer in TR-FRET buffer. The detection mix contains the EC60 concentration of tracer for 5-

A short description of the next data set: Caco-2 cell permeability. In kind it is in vitro ADME. The note with it: human; for Papp A→B at 1 h, 10 µM: Caco-2, apical-to-basolateral; for efflux ratio at 1 h, 10 µM: Caco-2 efflux ratio (B-A/A-B), read-out: ER. As to the method:
Permeability: bi-directional Caco-2 cell permeability was performed by Charles River Laboratories Inc. (ADME-SOP-49). Briefly, compounds were administered at 10 µM (1% DMSO final) to the apical or basolateral side of a polarised Caco-2 cell monolayer, then incubated at 37 °C for 60 minutes before appearance on the opposite side of the monolayer was determined by mass spectrometry. The efflux ratio (ER) is calculated from the ratio of B-A […]

The target of data set [3] is T2, PI5P4Kγ-WT. The data set is described as follows: InCell Pulse cellular target engagement (thermal stabilisation) in HEK293 cells. Type of data set: cell-based. How it is done:
The binding of compounds to PI5P4Kγ in intact cells was assessed using an InCell Pulse thermal stabilisation assay (DiscoverX). […] The plate was then incubated for 60 min in the dark prior to luminescence reading using a Pherastar FSX plate reader (BMG Labtech).
Statistical analysis was performed using nonparametric testing in Prism 8 (GraphPad). Activity pIC50 values and in vivo binding pEC50 values were estimated using a 4-parameter fit (Dotmatics).

The next data set concerns the target T4, PI5P4Kα-WT (Homo sapiens, UniProt P48426).
T4 sequence (P48426 1-406): T3 sequence (P48426 1-406)
As to the kind of experiment: ADP-Glo inhibition assay. The note with it: ADP-Glo.

Molecules are shown by their SMILES.

From the text for PI5P4Kα-WT: To enable direct comparisons, Promega’s ADP-Glo reporter assay was developed using a mutant form of the kinase. […] To mitigate concerns about being misled by the use of the PI5P4Kγ+ construct and the possible introduction of PI5P4Kα activity into the molecules, our screening cascade included the measurement of ADP-Glo activity at PI5P4Kα-WT (and PI5P4Kβ-WT to fully understand emerging selectivity profiles).

`FC(F)(F)c1ccccc1-c1nc(NCc2cccs2)c2ccccc2n1` [Compound 1, NIH-12848, reference compound]: the Kd (commonly the constant that tells how readily two partners part at equilibrium) on PI5P4Kβ was above 30 µM; at PI5P4Kγ-WT [1] it was 4 µM. Also, at PI5P4Kγ-WT [2], the ΔTm at 63 µM was 4.7 °C. Also, the IC50 (commonly the concentration that gives 50% inhibition) against PI5P4Kα is above 30 µM; at PI5P4Kγ-WT [3] (InCell Pulse, new data), 2.5 µM; on PI5P4Kα-WT (read-out: PI5P4Kα IC50, new data), above 50 µM. Moreover, the apparent permeability from apical to basolateral (Papp A→B) (in general, the apparent permeability from the apical to the basolateral side of a cell layer) at 1 h, 10 µM in “Caco-2 cell permeability” was determined as 6.4 ×10⁻⁶ cm/s. Besides, the efflux ratio at 1 h, 10 µM in “Caco-2 cell permeability” was 0.9. Besides, the “PI5P4Kα pIC50” value at PI5P4Kα-WT is below 4.3.
Turning to `CC(C)c1ccccc1-c1nc(NCc2ccccn2)c2c(ccn2C)n1` [Compound 40], the Kd at PI5P4Kβ is above 30 µM. On PI5P4Kγ-WT [1], this molecule came in with a Kd of 0.068 µM. Moreover, the ΔTm at 63 µM on PI5P4Kγ-WT [2] is 6.9 °C. Moreover, the IC50 against PI5P4Kα is above 30 µM. Also, in the data set “Caco-2 cell permeability”, the apical-to-basolateral permeability (Papp A→B) at 1 h, 10 µM is 122 ×10⁻⁶ cm/s and the efflux ratio at 1 h, 10 µM worked out at 0.4. The “cellular target engagement with PI5P4Kγ-WT” value on PI5P4Kγ-WT [3] (InCell Pulse) is “submicromolar activity”. Moreover, the “Target engagement PI5P4Kγ WT pIC50” value on PI5P4Kγ-WT [3] (InCell Pulse in intact cells) came to 6.1. Besides, the “PI5P4Kα pIC50” value on PI5P4Kα-WT is below 4.3.
